Tests used:
[1] = biological target: T1, STING protein (Homo sapiens, UniProt Q86WV6, H232R); test: Cell based reporter assay of IRF activation (THP1-dual-KI R232, IRF luciferase); details: THP-1; read-out: THP1-dual-KI R232_IRF(Luciferase)_Activity Maximum measured (%)
T1 construct: host or cells: THP-1 dual reporter cells, TMEM173 modified from HAQ to R232 (THP1-dual-KI R232)
Description: Cell reporter assays were developed to measure the ability of compounds of the application to activate the STING protein and activate both IRF/IFN and the NFkB signaling pathways in the myeloid derived cell line THP-1, which is commercially available from several suppliers. Briefly, THP-1 monocytes were transfected and selected for stable integration of 2 reporter constructs. Clones incorporating stably integrated vectors were further selected by antibiotic resistance to blastocidin and zeocin. The reporter constructs included: (1) firefly luciferase reporter gene under the control of an ISG54 promoter fused to five interferon (IFN)-stimulated response elements to measure IRF transcription factor binding activity and (2) secreted embryonic alkaline phosphatase reporter gene under transcription control of an IFN-beta minimal promoter fused to 5 copies of the NFkB consensus transcriptional response element and 3 copies of the c-Rel binding site.
The resulting THP-1 cell line was further modified to incorporate 3 amino acid point mutations (H71R A230G Q293R). This modification of the native TMEM173 gene in THP-1 cells (HAQ) was designed to produce a cell reporter that expressed the most common allelic variant in the human population (THP-1 R232, available from InvivoGen). Alternatively, the TMEM173 gene was knocked out to provide a congenic control to counter-screen for compound activation that was independent of the STING protein (THP-1 STING KO).
Once cell lines were established, reporter assay protocols were developed and optimized to screen small molecule compounds for agonist activity. Assay optimization for efficacy and Z′ value included titration of the following parameters:
1. No pre-activation with PMA
2. […]cells/well in 96 well plate format
7. Cell Titer Glo reagent (Promega) following supermatant removal
9. 8 point, 2 fold, duplicate starting at 150 μM PP28T

[2] = biological target: T2, hSTING-R232 (Homo sapiens, UniProt Q86WV6, H232R); test: STING Differential Scanning Fluorimetry (DSF) assay, human; format: binding; details: human STING R232-WT, 5 μM protein
T2 construct: recombinant mouse or human STING protein (aa140-379); 6xHis-SUMO elsewhere) (cleaved yes); made in house
T2 sequence (Q86WV6 140-379 H232R): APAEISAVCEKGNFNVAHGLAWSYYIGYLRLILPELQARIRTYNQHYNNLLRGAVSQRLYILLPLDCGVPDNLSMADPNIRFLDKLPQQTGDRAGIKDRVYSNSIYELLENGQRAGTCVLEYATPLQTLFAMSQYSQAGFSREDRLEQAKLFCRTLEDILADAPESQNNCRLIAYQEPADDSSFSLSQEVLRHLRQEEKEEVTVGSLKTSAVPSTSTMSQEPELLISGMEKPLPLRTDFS
Description: A STING DSF assay was performed to determine protein thermostability shift in response to small molecule ligand binding. A STING thermostability shift assay based on differential scanning fluorimetry was used to measure (1) the net shift in melting temperature (ΔTm)between the apo and ligand-bound states of the STING protein and (2) the concentration of the thermal denaturation transition (FC50) as a surrogate measure of binding affinity (Kd). Briefly, recombinant mouse or human STING protein (aa140-379) comprising the C-terminal binding domain (R232-WT) were purified by affinity chromatography and further processed to remove the purification tag, followed by gel filtration to achieve purity >95%. Protein in assay buffer was transferred to a 384 well plate and incubated with the hydrophobic fluorescent dye SYBR Orange. A temperature ramp was applied to the plate and the resulting dye fluorescence was plotted as a function of temperature. The first derivative of this function (dF/dT) was then used to extrapolate the melting temperature of the protein at various concentrations of compound and determine the thermal denaturation profile of a protein/compound complex.
2. 5 μM purified Target STING Protein
4. Buffer: 100 mM NaCl, 30 mM HEPES, pH 7.5
5. Thermal Ramp: 0.5° C./min
7. 11 point, 2 fold dilution, duplicate, 300 μM high concentrations

[3] = biological target: T3, human STING protein (140-379) (Homo sapiens, UniProt Q86WV6, H232R); test: Radiometric filtration binding competition assay (WT_FBA_HIS-SUMO-hSWAT); details: read-out: WT-hSWAT IC50
T3 construct: 6XHIS-SUMO-hSTING (140-379); made in house; host or cells: BL-21(DE3) E. coli, pET vector
T3 sequence (Q86WV6 140-379 H232R): as above
Description: A radiometric filtration binding competition assay was performed to quantify the binding affinity of compounds of the present application for the human or mouse STING protein, or associated HAQ human isoform. The competition format filtration binding assay detects the ability of small molecule compounds from binding to and inhibiting the subsequent binding of a tritiated [H3] […] The resulting dose response was fit by non-linear regression to determine an IC50 value, from which a Ki value for each compound was extrapolated.
Briefly, the recombinant C-terminal ligand binding domain of the human STING protein (140-379) or mouse STING protein (139-328) [0.5 μM] was incubated in the presence of a compound of the present application (8 point, 2 fold dilution starting at 300 μM) for 30 min or under control conditions. […] The resulting complexes were then filtered, dried, and scintillation fluid was added and the remaining radio signal was measured to determine the degree of compound ligand inhibition. This assay format was optimized for both the WT and HAQ isoforms of the human protein and the mouse orthologue protein.
Parameters optimized: • a. Form of protein: 6×HIS-SUMO tag or untagged • b. Concentration of target protein: Minimum concentration that achieved >80 max signal • c. Assay DMSO concentration: 10%-0.1% • d. Assay Buffer: Base (Tris or phosphate), Salt concentration, +/−Tween (0.1-2%) • e. […] Probe Concentration: Minimum concentration that achieved max assay window • g. Assay Format: Scintillation Proximity Bead or Filtration Binding Plate • h. Assay Plate: 384 vs 96 well format • i. Assay incubation times for successive incubation steps
WT-hSWAT: WT_FBA_HIS-SUMO-hSWAT IC50 (μM) (“WT”=Wild-type); and WT-mSWAT: MOUSE_FBA_HIS-SUMO-mSWAT C50 (μM) which is the mouse isoform of STING protein.

T1 sequence (Q86WV6 whole entry H232R): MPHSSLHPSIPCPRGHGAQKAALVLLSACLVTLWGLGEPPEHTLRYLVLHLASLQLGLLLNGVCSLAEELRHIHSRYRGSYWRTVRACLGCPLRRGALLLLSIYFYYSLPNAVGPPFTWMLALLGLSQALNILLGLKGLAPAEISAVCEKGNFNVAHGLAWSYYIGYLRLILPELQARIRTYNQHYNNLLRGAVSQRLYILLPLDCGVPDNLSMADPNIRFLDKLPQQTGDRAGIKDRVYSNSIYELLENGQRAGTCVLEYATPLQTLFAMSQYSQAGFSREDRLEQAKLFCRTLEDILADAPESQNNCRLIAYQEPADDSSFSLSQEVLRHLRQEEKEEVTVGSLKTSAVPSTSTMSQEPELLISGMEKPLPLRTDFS

Row | SMILES | Emax [1] | WT_DSF_hSWAT Tm Shift (° C.) [2] | IC50 [3]
1 | COCCN(CC(F)(F)F)c1ccc2c(=O)c3ccc(Cl)c(SC)c3n(CC(=O)O)c2n1 [Compound 50, sodium 2-(8-chloro-2-((2-methoxyethyl)(2,2,2-trifluoroethyl)amino)-9-(methylthio)-5-oxobenzo[b][1,8]naphthyridin-10(5H)-yl)acetate] | > 50% | D (“D” > 7° C.) | 20 to 100 µM
2 | Cc1ccc2c(=O)c3ccc(C(C)(C)C#N)nc3n(CC(=O)O)c2c1N(C)C [Compound 64, sodium 2-(2-(2-cyanopropan-2-yl)-9-(dimethylamino)-8-methyl-5-oxobenzo[b][1,8]naphthyridin-10(5H)-yl)acetate] | > 50% | D (“D” > 7° C.) | 20 to 100 µM
3 | CN(C)c1c(Cl)ccc2c(=O)c3ccc(N(C)CCn4ccnc4)nc3n(CC(=O)O)c12 [Compound 80, sodium 2-[8-chloro-9-(dimethylamino)-2-{[2-(imidazole-1-yl)ethyl](methyl)amino}-5-oxobenzo[b]1,8-naphthyridin-10-yl]acetate] | > 50% | D (“D” > 7° C.) | 20 to 100 µM
4 | CSc1c(Cl)ccc2c(=O)c3ccc(N(C)C4CC(F)(F)C4)nc3n(CC(=O)O)c12 [Compound 41, Sodium 2-(8-chloro-2-((3,3-difluorocyclobutyl)(methyl)amino)-9-(methylthio)-5-oxobenzo[b][1,8]naphthyridin-10(5H)-yl)acetate] | > 50% | D (“D” > 7° C.) | 20 to 100 µM
5 | CN(C)c1ccc2c(=O)c3ccc(Cl)c(N(C)C)c3n(CC(=O)O)c2n1 [Compound 19, sodium 2-(8-chloro-2,9-bis(dimethylamino)-5-oxobenzo[b][1,8]naphthyridin-10(5H)-yl)acetate] | > 50% | D (“D” > 7° C.) | 20 to 100 µM
6 | C=Cc1c(Cl)ccc2c(=O)c3ccc(N(C)C)nc3n(CC(=O)O)c12 [Compound 78, 2-(8-chloro-2-(dimethylamino)-5-oxo-9-vinylbenzo[b][1,8]naphthyridin-10(5H)-yl)acetic acid] | > 50% | D (“D” > 7° C.) | 20 to 100 µM
7 | CSc1c(Cl)ccc2c(=O)c3ccc(C(C)(C)C#N)nc3n(CC(=O)O)c12 [Compound 24, sodium 2-(8-chloro-2-(2-cyanopropan-2-yl)-9-(methylthio)-5-oxobenzo[b][1,8]naphthyridin-10(5H)-yl)acetate] | > 50% | D (“D” > 7° C.) | 20 to 100 µM
8 | CSc1c(Cl)ccc2c(=O)c3ccc(N(C)C)nc3n(CC(=O)O)c12 [Compound 22, sodium 2-(8-chloro-2-(dimethylamino)-9-(methylthio)-5-oxobenzo[b][1,8]naphthyridin-10(5H)-yl)acetate] | > 50% | D (“D” > 7° C.) | 20 to 100 µM
9 | CSc1c(C)ccc2c(=O)c3ccc(C(C)(C)C)nc3n(CC(=O)O)c12 [Compound 63, sodium 2-(2-(tert-butyl)-8-methyl-9-(methylthio)-5-oxobenzo[b][1,8]naphthyridin-10(5H)-yl)acetate] | > 50% | D (“D” > 7° C.) | 20 to 100 µM
10 | CCN(CCOC)c1nc2c(cc1Cl)c(=O)c1ccc(Cl)c(SC)c1n2CC(=O)O [Compound 59, sodium 2-(3,8-dichloro-2-(ethyl(2-methoxyethyl)amino)-9-(methylthio)-5-oxobenzo[b][1,8]naphthyridin-10(5H)-yl)acetate] | > 50% | D (“D” > 7° C.) | 20 to 100 µM
11 | CCc1nc2c(cc1Cl)c(=O)c1ccc(Cl)c(N(C)C)c1n2CC(=O)O [Compound 17, 2-(3,8-dichloro-9-(dimethylamino)-2-ethyl-5-oxobenzo[b][1,8]naphthyridin-10(5H)-yl)acetic acid] | > 50% | C (“C” = 2-7° C.) | 20 to 100 µM
12 | CSc1c(Cl)ccc2c(=O)c3cc(Cl)c(N(C)C)nc3n(CC(=O)O)c12 [Compound 58, sodium 2-(3,8-dichloro-2-(dimethylamino)-9-(methylthio)-5-oxobenzo[b][1,8]naphthyridin-10(5H)-yl)acetate] | > 50% | D (“D” > 7° C.) | < 20 µM
13 | CSc1c(Cl)ccc2c(=O)c3ccc(C(C)(C)C)nc3n(CC(=O)O)c12 [Compound 12] | > 50% | D (“D” > 7° C.) | < 20 µM
14 | CN(C)c1c(Cl)ccc2c(=O)c3ccc(N(C)CC4CC(F)(F)C4)nc3n(CC(=O)O)c12 [Compound 26, sodium 2-(8-chloro-2-(((3,3-difluorocyclobutyl)methyl) (methyl)amino)-9-(dimethylamino)-5-oxobenzo[b][1,8]naphthyridin-10(5H)-yl)acetate] | > 50% | D (“D” > 7° C.) | < 20 µM
15 | COCCN(C)c1nc2c(cc1Cl)c(=O)c1ccc(Cl)c(SC)c1n2CC(=O)O [Compound 75, sodium 2-(3,8-dichloro-2-((2-methoxyethyl)(methyl)amino)-9-(methylthio)-5-oxobenzo[b][1,8]naphthyridin-10(5H)-yl)acetate] | > 50% | D (“D” > 7° C.) | 20 to 100 µM
16 | CSc1c(Cl)ccc2c(=O)c3ccc(N(C)CC4CCOCC4)nc3n(CC(=O)O)c12 [Compound 27, 2-(8-chloro-2-(methyl((tetrahydro-2H-pyran-4-yl)methyl)amino)-9-(methylthio)-5-oxobenzo[b][1,8]naphthyridin-10(5H)-yl)acetic acid] | > 50% | D (“D” > 7° C.) | 20 to 100 µM
17 | Cc1ccc2c(=O)c3ccc(Cl)c(N(C)C)c3n(CC(=O)O)c2n1 [Compound 4] | > 50% | D (“D” > 7° C.) | 20 to 100 µM
18 | CN(C)c1c(Cl)ccc2c(=O)c3ccc(C(C)(C)C(N)=O)nc3n(CC(=O)O)c12 [Compound 20, 2-(2-(1-amino-2-methyl-1-oxopropan-2-yl)-8-chloro-9-(dimethylamino)-5-oxobenzo[b][1,8]naphthyridin-10(5H)-yl)acetic acid] | > 50% | C (“C” = 2-7° C.) | 100 to 300 µM
